{"source": "paper PMC5850045", "about": "(ERJ Open Research, 2018)", "key": {"histamine H1 receptor": {"target": "histamine H1 receptor (Homo sapiens, UniProt P35367)", "sequence (P35367 whole entry, species assumed)": "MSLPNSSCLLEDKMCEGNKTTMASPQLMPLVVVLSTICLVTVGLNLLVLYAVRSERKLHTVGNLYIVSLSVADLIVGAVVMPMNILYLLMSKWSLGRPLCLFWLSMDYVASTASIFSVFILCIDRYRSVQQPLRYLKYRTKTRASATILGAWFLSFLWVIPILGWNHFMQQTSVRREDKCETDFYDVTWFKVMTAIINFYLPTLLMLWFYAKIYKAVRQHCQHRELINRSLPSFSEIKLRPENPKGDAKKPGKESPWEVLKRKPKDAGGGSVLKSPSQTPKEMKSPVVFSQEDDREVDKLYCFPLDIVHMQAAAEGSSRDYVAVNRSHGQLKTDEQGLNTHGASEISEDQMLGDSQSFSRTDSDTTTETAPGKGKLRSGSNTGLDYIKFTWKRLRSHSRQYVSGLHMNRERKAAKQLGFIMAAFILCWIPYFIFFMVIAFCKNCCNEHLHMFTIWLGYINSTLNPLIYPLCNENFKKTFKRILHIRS", "assay": "Primary radioligand binding screen", "conditions": "10 µM, n = 4"}, "α1D-adrenergic receptor": {"target": "T1, α1D-adrenergic receptor (Homo sapiens, UniProt P25100)", "T1 sequence (P25100 1-572)": "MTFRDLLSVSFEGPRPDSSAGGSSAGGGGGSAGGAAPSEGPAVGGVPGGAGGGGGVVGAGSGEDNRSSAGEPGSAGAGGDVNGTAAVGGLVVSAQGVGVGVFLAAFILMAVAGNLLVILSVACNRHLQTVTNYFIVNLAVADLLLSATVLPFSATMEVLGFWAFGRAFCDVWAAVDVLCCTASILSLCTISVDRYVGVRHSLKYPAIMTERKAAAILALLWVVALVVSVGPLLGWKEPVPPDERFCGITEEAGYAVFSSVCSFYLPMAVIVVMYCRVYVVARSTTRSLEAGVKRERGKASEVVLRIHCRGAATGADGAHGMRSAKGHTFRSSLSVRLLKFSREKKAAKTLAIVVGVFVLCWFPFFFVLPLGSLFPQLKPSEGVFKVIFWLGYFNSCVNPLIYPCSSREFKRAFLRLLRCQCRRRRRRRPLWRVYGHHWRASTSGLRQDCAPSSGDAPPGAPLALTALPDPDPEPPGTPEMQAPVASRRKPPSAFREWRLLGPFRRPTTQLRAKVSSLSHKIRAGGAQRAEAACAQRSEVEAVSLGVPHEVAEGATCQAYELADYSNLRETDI", "assay": "Secondary radioligand binding assay"}, "serotonin transporter [1]": {"target": "T2, serotonin transporter (Homo sapiens, UniProt P31645)", "T2 sequence (P31645 whole entry)": "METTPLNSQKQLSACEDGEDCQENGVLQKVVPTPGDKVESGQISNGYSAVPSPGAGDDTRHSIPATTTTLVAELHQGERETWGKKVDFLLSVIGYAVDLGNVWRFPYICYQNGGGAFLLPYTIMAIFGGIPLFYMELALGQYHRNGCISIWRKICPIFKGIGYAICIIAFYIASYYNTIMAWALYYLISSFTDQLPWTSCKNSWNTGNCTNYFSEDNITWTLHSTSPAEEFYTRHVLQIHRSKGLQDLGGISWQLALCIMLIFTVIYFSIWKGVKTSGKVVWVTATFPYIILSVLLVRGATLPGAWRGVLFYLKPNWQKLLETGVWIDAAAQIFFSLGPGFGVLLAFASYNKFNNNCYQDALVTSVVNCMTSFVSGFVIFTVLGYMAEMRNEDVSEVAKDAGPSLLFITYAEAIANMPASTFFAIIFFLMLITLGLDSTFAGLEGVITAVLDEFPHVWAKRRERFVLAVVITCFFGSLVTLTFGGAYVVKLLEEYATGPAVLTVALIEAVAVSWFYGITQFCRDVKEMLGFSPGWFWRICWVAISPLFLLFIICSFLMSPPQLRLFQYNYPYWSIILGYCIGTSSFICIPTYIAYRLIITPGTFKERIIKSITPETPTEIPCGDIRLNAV", "assay": "Secondary radioligand binding assay", "conditions": "low-affinity binding"}, "α1A-adrenergic receptor [2]": {"target": "T3, α1A-adrenergic receptor (Homo sapiens, UniProt P35348)", "T3 sequence (P35348 1-466)": "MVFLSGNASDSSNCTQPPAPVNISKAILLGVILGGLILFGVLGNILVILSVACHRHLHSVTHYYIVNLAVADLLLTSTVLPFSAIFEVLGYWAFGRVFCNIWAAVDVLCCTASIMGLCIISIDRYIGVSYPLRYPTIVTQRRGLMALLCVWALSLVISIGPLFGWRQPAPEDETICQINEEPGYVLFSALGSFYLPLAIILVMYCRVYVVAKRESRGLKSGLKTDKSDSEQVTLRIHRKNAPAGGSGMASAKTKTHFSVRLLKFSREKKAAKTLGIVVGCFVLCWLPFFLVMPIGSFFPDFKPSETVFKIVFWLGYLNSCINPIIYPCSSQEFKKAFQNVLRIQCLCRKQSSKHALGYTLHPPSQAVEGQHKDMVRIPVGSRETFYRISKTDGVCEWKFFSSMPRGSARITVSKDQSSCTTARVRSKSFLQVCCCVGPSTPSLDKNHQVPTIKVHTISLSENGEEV", "assay": "Secondary radioligand binding assay"}, "α1A-adrenergic receptor [3]": {"target": "T3, α1A-adrenergic receptor", "assay": "Primary radioligand binding screen", "conditions": "10 µM, n = 4"}, "serotonin transporter [4]": {"target": "T2, serotonin transporter", "assay": "Primary radioligand binding screen", "conditions": "10 µM, n = 4"}, "rat colon": {"test_system": "rat colon", "assay": "Ex vivo rat colon force contraction experiment", "conditions": "for contractile response in the colon: colon pre-treated with β3 receptor selective antagonist SR59230A; for effects on colonic contractions: ex vivo rat colon preparation"}, "β3-adrenergic receptor [5]": {"target": "T4, β3-adrenergic receptor (Homo sapiens, UniProt P13945)", "T4 sequence (P13945 whole entry, species assumed)": "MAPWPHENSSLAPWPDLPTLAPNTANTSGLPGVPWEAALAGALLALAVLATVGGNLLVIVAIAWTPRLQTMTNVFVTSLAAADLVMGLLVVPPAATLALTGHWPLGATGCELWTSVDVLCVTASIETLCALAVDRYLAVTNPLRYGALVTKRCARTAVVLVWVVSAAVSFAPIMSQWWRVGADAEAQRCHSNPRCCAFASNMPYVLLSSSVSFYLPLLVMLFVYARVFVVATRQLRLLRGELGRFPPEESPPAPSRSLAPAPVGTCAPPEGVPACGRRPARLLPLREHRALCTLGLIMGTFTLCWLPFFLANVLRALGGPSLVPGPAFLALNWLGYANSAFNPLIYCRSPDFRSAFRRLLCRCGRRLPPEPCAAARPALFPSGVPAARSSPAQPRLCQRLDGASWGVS", "assay": "Primary radioligand binding screen", "conditions": "10 µM, n = 4"}, "δ-opioid receptor [6]": {"target": "T5, δ-opioid receptor (Homo sapiens, UniProt P41143)", "T5 sequence (P41143 whole entry)": "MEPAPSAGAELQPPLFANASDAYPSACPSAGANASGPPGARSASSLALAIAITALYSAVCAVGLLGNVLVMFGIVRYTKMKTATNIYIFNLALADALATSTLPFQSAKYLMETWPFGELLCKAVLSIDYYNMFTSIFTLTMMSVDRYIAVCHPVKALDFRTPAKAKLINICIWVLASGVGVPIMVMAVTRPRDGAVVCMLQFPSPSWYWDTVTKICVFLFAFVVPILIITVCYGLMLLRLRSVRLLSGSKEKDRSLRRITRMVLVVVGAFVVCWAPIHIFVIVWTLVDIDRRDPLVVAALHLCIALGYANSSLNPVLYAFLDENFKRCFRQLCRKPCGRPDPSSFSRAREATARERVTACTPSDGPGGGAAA", "assay": "Primary radioligand binding screen", "conditions": "10 µM, n = 4"}, "5-HT2C receptor [7]": {"target": "T6, 5-HT2C receptor (Homo sapiens, UniProt P28335)", "T6 sequence (P28335 33-458)": "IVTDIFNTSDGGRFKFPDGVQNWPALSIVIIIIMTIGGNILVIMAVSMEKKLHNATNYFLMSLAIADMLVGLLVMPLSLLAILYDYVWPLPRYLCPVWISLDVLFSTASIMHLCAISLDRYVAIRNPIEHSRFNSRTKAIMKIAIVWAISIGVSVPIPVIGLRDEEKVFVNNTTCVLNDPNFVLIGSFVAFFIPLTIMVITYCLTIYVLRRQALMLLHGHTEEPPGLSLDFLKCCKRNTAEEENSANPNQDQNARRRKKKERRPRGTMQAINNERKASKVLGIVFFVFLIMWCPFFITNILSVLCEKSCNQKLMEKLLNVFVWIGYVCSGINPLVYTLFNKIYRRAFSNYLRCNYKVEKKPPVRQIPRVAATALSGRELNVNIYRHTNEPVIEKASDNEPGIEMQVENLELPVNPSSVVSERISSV", "assay": "Secondary radioligand binding assay"}, "dopamine transporter": {"target": "dopamine transporter (Homo sapiens, UniProt Q01959)", "sequence (Q01959 whole entry)": "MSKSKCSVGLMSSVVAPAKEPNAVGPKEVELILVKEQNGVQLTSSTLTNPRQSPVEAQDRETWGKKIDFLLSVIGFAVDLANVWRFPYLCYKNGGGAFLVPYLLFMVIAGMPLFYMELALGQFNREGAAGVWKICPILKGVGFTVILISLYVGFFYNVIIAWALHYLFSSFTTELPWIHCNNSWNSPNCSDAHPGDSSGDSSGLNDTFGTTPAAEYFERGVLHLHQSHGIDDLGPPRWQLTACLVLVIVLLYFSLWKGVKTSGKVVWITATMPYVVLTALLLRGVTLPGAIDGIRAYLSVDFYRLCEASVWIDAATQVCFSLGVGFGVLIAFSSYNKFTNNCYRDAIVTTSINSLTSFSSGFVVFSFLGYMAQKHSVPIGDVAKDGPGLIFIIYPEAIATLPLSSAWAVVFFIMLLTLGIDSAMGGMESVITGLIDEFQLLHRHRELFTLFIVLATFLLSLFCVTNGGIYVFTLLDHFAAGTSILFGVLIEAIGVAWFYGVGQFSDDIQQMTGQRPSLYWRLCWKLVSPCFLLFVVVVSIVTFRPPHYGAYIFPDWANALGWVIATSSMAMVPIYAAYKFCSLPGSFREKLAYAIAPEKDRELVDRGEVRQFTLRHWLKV", "assay": "Primary radioligand binding screen", "conditions": "10 µM, n = 4"}, "β3-adrenergic receptor [8]": {"target": "T4, β3-adrenergic receptor", "assay": "Secondary radioligand binding assay"}, "δ-opioid receptor [9]": {"target": "T5, δ-opioid receptor", "assay": "Secondary radioligand binding assay"}, "5-HT2C receptor [10]": {"target": "T6, 5-HT2C receptor", "assay": "Primary radioligand binding screen", "conditions": "10 µM, n = 4"}, "α1B-adrenergic receptor": {"target": "T7, α1B-adrenergic receptor (Homo sapiens, UniProt P35368)", "T7 sequence (P35368 1-520)": "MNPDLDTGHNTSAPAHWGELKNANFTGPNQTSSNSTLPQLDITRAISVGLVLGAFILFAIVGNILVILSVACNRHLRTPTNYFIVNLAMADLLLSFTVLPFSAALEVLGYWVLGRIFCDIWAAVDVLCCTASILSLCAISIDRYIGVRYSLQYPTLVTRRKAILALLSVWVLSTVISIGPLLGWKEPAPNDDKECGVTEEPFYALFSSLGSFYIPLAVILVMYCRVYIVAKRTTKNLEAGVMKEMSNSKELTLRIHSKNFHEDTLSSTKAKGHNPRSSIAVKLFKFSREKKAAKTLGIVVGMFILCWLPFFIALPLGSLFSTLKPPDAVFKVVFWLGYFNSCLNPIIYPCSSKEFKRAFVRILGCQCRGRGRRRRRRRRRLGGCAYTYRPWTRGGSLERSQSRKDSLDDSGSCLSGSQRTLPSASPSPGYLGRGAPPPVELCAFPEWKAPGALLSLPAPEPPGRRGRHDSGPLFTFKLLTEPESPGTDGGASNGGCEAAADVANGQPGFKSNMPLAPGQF", "assay": "Secondary radioligand binding assay"}, "muscarinic M3 receptor": {"target": "muscarinic M3 receptor (Homo sapiens, UniProt P20309)", "sequence (P20309 whole entry)": "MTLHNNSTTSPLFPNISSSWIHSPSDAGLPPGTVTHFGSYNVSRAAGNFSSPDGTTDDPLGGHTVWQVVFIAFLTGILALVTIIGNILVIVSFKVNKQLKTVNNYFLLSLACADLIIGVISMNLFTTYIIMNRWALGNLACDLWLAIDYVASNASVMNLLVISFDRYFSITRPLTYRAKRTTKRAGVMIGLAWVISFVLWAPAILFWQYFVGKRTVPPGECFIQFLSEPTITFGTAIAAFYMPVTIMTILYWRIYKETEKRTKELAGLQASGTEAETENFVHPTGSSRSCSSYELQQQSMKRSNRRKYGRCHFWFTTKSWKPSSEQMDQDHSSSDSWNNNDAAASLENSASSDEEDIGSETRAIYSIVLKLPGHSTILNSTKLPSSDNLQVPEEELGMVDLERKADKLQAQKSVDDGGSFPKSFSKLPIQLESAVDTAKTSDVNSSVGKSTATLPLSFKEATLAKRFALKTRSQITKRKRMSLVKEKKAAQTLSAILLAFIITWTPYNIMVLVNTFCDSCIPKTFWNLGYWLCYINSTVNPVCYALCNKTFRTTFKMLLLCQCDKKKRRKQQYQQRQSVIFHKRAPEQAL", "type": "binding"}}, "note": "Like-named read-outs stand apart in the source and are kept apart here."}
{"smiles": "CC(C)(CO)c1cc2cc(NC(=O)C3(c4ccc5c(c4)OC(F)(F)O5)CC3)c(F)cc2n1C[C@@H](O)CO", "note": "[tezacaftor]", "values": [{"measurement": "% displacement", "setting": "histamine H1 receptor", "value": 53.3, "unit": "%"}, {"measurement": "Ki", "setting": "α1D-adrenergic receptor", "value": 5.45, "unit": "µM"}]}
{"smiles": "CC(C)(C)c1cc(C(C)(C)C(=O)O)c(O)cc1NC(=O)c1c[nH]c2ccccc2c1=O", "note": "[iva-M6, ivacaftorcarboxylate]", "values": [{"measurement": "Ki", "setting": "serotonin transporter [1]", "value": "> 10", "unit": "µM"}, {"measurement": "Ki", "setting": "α1A-adrenergic receptor [2]; low-affinity binding", "value": "> 10", "unit": "µM"}, {"measurement": "% displacement", "setting": "α1A-adrenergic receptor [3]", "value": 92.3, "unit": "%"}, {"measurement": "% displacement", "setting": "serotonin transporter [4]", "value": 50.9, "unit": "%"}, {"measurement": "contractile response in the colon", "setting": "rat colon", "value": "significant contractile response"}, {"measurement": "effects on colonic contractions", "setting": "rat colon", "value": "no significant effects"}]}
{"smiles": "CC(C)(C)c1cc(C(C)(C)C)c(NC(=O)c2c[nH]c3ccccc3c2=O)cc1O", "note": "[ivacaftor]", "values": [{"measurement": "Ki", "setting": "serotonin transporter [1]; Ki", "value": "> 10", "unit": "µM"}, {"measurement": "Ki", "setting": "α1A-adrenergic receptor [2]", "value": "> 10", "unit": "µM"}, {"measurement": "% displacement", "setting": "β3-adrenergic receptor [5]", "value": 75.9, "unit": "%"}, {"measurement": "% displacement", "setting": "α1A-adrenergic receptor [3]", "value": 58.3, "unit": "%"}, {"measurement": "% displacement", "setting": "serotonin transporter [4]", "value": 61.1, "unit": "%"}, {"measurement": "% displacement", "setting": "δ-opioid receptor [6]", "value": 50.8, "unit": "%"}, {"measurement": "Ki", "setting": "5-HT2C receptor [7]", "value": 0.866, "unit": "µM"}, {"measurement": "% displacement", "setting": "dopamine transporter", "value": 55.2, "unit": "%"}, {"measurement": "Ki", "setting": "β3-adrenergic receptor [8]", "value": 1.93, "unit": "µM"}, {"measurement": "Ki", "setting": "δ-opioid receptor [9]", "value": 2.59, "unit": "µM"}, {"measurement": "contractile response in the colon", "setting": "rat colon", "value": "significant contractile response"}, {"measurement": "effects on colonic contractions", "setting": "rat colon", "value": "no significant effects"}, {"measurement": "% displacement", "setting": "5-HT2C receptor [10]", "value": 84.8, "unit": "%"}]}
{"smiles": "Cc1ccc(NC(=O)C2(c3ccc4c(c3)OC(F)(F)O4)CC2)nc1-c1cccc(C(=O)O)c1", "note": "[lumacaftor]", "values": [{"measurement": "% displacement", "setting": "histamine H1 receptor", "value": 71.2, "unit": "%"}, {"measurement": "Ki", "setting": "α1B-adrenergic receptor", "value": "> 10", "unit": "µM"}, {"measurement": "Ki", "setting": "α1D-adrenergic receptor", "value": 4.84, "unit": "µM"}]}
{"smiles": "CC(C)(C)c1cc(C(C)(C)CO)c(O)cc1NC(=O)c1c[nH]c2ccccc2c1=O", "note": "[iva-M1, hydroxymethylivacaftor]", "values": [{"measurement": "Ki", "setting": "serotonin transporter [1]", "value": "> 10", "unit": "µM"}, {"measurement": "Ki", "setting": "α1A-adrenergic receptor [2]; low-affinity binding", "value": "> 10", "unit": "µM"}, {"measurement": "% displacement", "setting": "α1A-adrenergic receptor [3]", "value": 79.9, "unit": "%"}, {"measurement": "% displacement", "setting": "serotonin transporter [4]", "value": 56.7, "unit": "%"}, {"measurement": "Ki", "setting": "muscarinic M3 receptor", "value": 1.83, "unit": "µM"}, {"measurement": "pKi", "setting": "muscarinic M3 receptor", "value": "5.70±0.10"}, {"measurement": "% displacement", "setting": "5-HT2C receptor [10]", "value": 78.2, "unit": "%"}]}
